Patent publication US11083725B2 (priority 2014, dated 2021)

Test system: NHBE cells
Assay: Biolog metabolic array: substrate use by NHBE cells with or without CA09 infection
Assay type: cell-based, human
Conditions: for Substrate use, 590 nm absorbance normalized to zero hour, 0 hr: Biolog PMM2, 0 hr; for Substrate use, 590 nm absorbance normalized to zero hour, 1 hr: Biolog PMM2, 1 hr; for Substrate use, 590 nm absorbance normalized to zero hour, 5 hr: Biolog PMM2, 5 hr; for Substrate use, 590 nm absorbance normalized to zero hour, 7 hr: Biolog PMM2, 7 hr
[1] = Control (uninfected) NHBE cells
[2] = Virus (CA09-infected NHBE cells, MOI 1)
[3] = Virus: CA09-infected NHBE cells, MOI 1, Biolog PMM2

Compound | 590 nm absorbance normalized to zero hour (substrate use), 0 hr [1] | 590 nm absorbance normalized to zero hour (substrate use), 1 hr [1] | 590 nm absorbance normalized to zero hour (substrate use), 2 hr [1] | 590 nm absorbance normalized to zero hour (substrate use), 3 hr [1] | 590 nm absorbance normalized to zero hour (substrate use), 4 hr [1] | 590 nm absorbance normalized to zero hour (substrate use), 6 hr [1] | 590 nm absorbance normalized to zero hour (substrate use), 8 hr [1] | 590 nm absorbance normalized to zero hour (substrate use), 9 hr [1] | 590 nm absorbance normalized to zero hour (substrate use), 10 hr [1] | 590 nm absorbance normalized to zero hour (substrate use), 11 hr [1] | Substrate use, 590 nm absorbance normalized to zero hour, 0 hr [1] | Substrate use, 590 nm absorbance normalized to zero hour, 1 hr [1] | Substrate use, 590 nm absorbance normalized to zero hour, 5 hr [1] | Substrate use, 590 nm absorbance normalized to zero hour, 7 hr [1] | 590 nm absorbance normalized to zero hour (substrate use), 0 hr [2] | 590 nm absorbance normalized to zero hour (substrate use), 1 hr [2] | 590 nm absorbance normalized to zero hour (substrate use), 2 hr [2] | 590 nm absorbance normalized to zero hour (substrate use), 3 hr [2] | 590 nm absorbance normalized to zero hour (substrate use), 4 hr [2] | 590 nm absorbance normalized to zero hour (substrate use), 5 hr [2] | other results
OC[C@H]1O[C@@H](O[C@H]2[C@H](O)[C@@H](O)[C@@H](O)O[C@@H]2CO)[C@H](O)[C@@H](O)[C@H]1O [a-D-Lactose] | 1.00 | 0.44 | 0.58 | 0.65 | 0.69 | 0.63 | 0.94 | 1.01 | 1.02 | 0.92 | 1.00 | 0.44 | 0.82 | 0.88 | 1.00 | 0.17 | 0.22 | 0.26 | 0.28 | 0.33 | 590 nm absorbance normalized to zero hour (substrate use), 6 hr [2]: 0.35; 590 nm absorbance normalized to zero hour (substrate use), 7 hr [2]: 0.37; 590 nm absorbance normalized to zero hour (substrate use), 8 hr [2]: 0.39; 590 nm absorbance normalized to zero hour (substrate use), 9 hr [2]: 0.42; 590 nm absorbance normalized to zero hour (substrate use), 10 hr [2]: 0.41; 590 nm absorbance normalized to zero hour (substrate use), 11 hr [2]: 0.39; 590 nm absorbance normalized to zero hour (substrate use), 0 hr [3]: 1.00; 590 nm absorbance normalized to zero hour (substrate use), 1 hr [3]: 0.17; 590 nm absorbance normalized to zero hour (substrate use), 2 hr [3]: 0.22; 590 nm absorbance normalized to zero hour (substrate use), 3 hr [3]: 0.26; 590 nm absorbance normalized to zero hour (substrate use), 4 hr [3]: 0.28; 590 nm absorbance normalized to zero hour (substrate use), 5 hr [3]: 0.33; 590 nm absorbance normalized to zero hour (substrate use), 6 hr [3]: 0.35; 590 nm absorbance normalized to zero hour (substrate use), 7 hr [3]: 0.37; 590 nm absorbance normalized to zero hour (substrate use), 8 hr [3]: 0.39; 590 nm absorbance normalized to zero hour (substrate use), 9 hr [3]: 0.42; 590 nm absorbance normalized to zero hour (substrate use), 10 hr [3]: 0.41; 590 nm absorbance normalized to zero hour (substrate use), 11 hr [3]: 0.39
CCC(=O)C(=O)O [a-Keto-Butyric Acid] | 1.00 | 1.10 | 1.17 | 1.24 | 1.25 | 1.49 | 1.34 | 1.36 | 1.37 | 1.39 | 1.00 | 1.10 | 1.28 | 1.33 | 1.00 | 0.28 | 0.29 | 0.30 | 0.31 | 0.32 | 590 nm absorbance normalized to zero hour (substrate use), 6 hr [2]: 0.32; 590 nm absorbance normalized to zero hour (substrate use), 7 hr [2]: 0.33; 590 nm absorbance normalized to zero hour (substrate use), 8 hr [2]: 0.33; 590 nm absorbance normalized to zero hour (substrate use), 9 hr [2]: 0.34; 590 nm absorbance normalized to zero hour (substrate use), 10 hr [2]: 0.34; 590 nm absorbance normalized to zero hour (substrate use), 11 hr [2]: 0.34; 590 nm absorbance normalized to zero hour (substrate use), 0 hr [3]: 1.00; 590 nm absorbance normalized to zero hour (substrate use), 1 hr [3]: 0.28; 590 nm absorbance normalized to zero hour (substrate use), 2 hr [3]: 0.29; 590 nm absorbance normalized to zero hour (substrate use), 3 hr [3]: 0.30; 590 nm absorbance normalized to zero hour (substrate use), 4 hr [3]: 0.31; 590 nm absorbance normalized to zero hour (substrate use), 5 hr [3]: 0.32; 590 nm absorbance normalized to zero hour (substrate use), 6 hr [3]: 0.32; 590 nm absorbance normalized to zero hour (substrate use), 7 hr [3]: 0.33; 590 nm absorbance normalized to zero hour (substrate use), 8 hr [3]: 0.33; 590 nm absorbance normalized to zero hour (substrate use), 9 hr [3]: 0.34; 590 nm absorbance normalized to zero hour (substrate use), 10 hr [3]: 0.34; 590 nm absorbance normalized to zero hour (substrate use), 11 hr [3]: 0.34
O=C(O)CCC(=O)C(=O)O [a-Keto-Glutaric Acid] | 1.00 | 1.29 | 1.54 | 1.40 | 1.45 | 1.98 | 1.69 | 1.80 | 1.93 | 2.00 | 1.00 | 1.29 | 1.52 | 1.61 | 1.00 | 0.28 | 0.37 | 0.45 | 0.46 | 0.51 | 590 nm absorbance normalized to zero hour (substrate use), 6 hr [2]: 0.54; 590 nm absorbance normalized to zero hour (substrate use), 7 hr [2]: 0.56; 590 nm absorbance normalized to zero hour (substrate use), 8 hr [2]: 0.58; 590 nm absorbance normalized to zero hour (substrate use), 9 hr [2]: 0.64; 590 nm absorbance normalized to zero hour (substrate use), 10 hr [2]: 0.64; 590 nm absorbance normalized to zero hour (substrate use), 11 hr [2]: 0.69; 590 nm absorbance normalized to zero hour (substrate use), 0 hr [3]: 1.00; 590 nm absorbance normalized to zero hour (substrate use), 1 hr [3]: 0.28; 590 nm absorbance normalized to zero hour (substrate use), 2 hr [3]: 0.37; 590 nm absorbance normalized to zero hour (substrate use), 3 hr [3]: 0.45; 590 nm absorbance normalized to zero hour (substrate use), 4 hr [3]: 0.46; 590 nm absorbance normalized to zero hour (substrate use), 5 hr [3]: 0.51; 590 nm absorbance normalized to zero hour (substrate use), 6 hr [3]: 0.54; 590 nm absorbance normalized to zero hour (substrate use), 7 hr [3]: 0.56; 590 nm absorbance normalized to zero hour (substrate use), 8 hr [3]: 0.58; 590 nm absorbance normalized to zero hour (substrate use), 9 hr [3]: 0.64; 590 nm absorbance normalized to zero hour (substrate use), 10 hr [3]: 0.64; 590 nm absorbance normalized to zero hour (substrate use), 11 hr [3]: 0.69
